In US20180338980A1, “AROMATIC SULFONAMIDE DERIVATIVES” (BAYER PHARMA AKTIENGESELLSCHAFT, priority 2015, published 2018):

Columns and labels:
P2X4 [1] = target: T1, P2X4 (Homo sapiens, UniProt Q99571); test: Assay A: human P2X4 receptor cell line, FLIPR calcium assay (Fluo-8, agonist Bz-ATP at EC80); assay type: cell-based; set-up: host or cells: HEK 293 (recombinant, constitutively expressing; with mitochondrial photina in Assay B); settings: for Emax: read-out: human P2X4 Assay A avg Efficacy; for IC50: Bz-ATP at EC80, average values
T1 sequence (Q99571 1-388): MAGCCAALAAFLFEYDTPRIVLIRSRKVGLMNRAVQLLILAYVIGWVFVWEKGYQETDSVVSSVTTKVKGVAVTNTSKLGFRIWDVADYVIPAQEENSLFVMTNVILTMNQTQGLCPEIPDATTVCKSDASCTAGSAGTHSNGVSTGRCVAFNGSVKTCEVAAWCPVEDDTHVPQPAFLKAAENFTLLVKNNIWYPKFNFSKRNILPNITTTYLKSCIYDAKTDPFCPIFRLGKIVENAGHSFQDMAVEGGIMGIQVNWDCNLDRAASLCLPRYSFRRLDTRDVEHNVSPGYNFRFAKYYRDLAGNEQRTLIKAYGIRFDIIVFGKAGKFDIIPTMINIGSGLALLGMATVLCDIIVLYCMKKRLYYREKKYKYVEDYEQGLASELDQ
In short: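 HEK cells expressing human P2X4 (20,000/well, plated ~20 h earlier) loaded 30 min with 5 μM Fluo-8 in HBSS/HEPES buffer with 1.8 mM CaCl2, 1 mM MgCl2, 2 mM probenecid, pH 7.4. Antagonist preincubated 30 min at room temperature (0.5% DMSO), then Bz-ATP at EC80. Peak fluorescence over 120 s, normalized to DMSO; triplicate IC50 and Hill fits.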

P2X4 [2] = target: T1, P2X4; test: Assay B: human P2X4 receptor cell line, mitochondrial photina luminescence (agonist Bz-ATP at EC50); assay type: cell-based; set-up: host or cells: HEK 293 (recombinant, constitutively expressing; with mitochondrial photina in Assay B); settings: for Emax: read-out: human P2X4 Assay B avg Efficacy
In short: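 Recombinant cell line constitutively expressing human P2X4 and mitochondrial photina photoprotein, reconstituted with coelenterazine. Receptor stimulated with Bz-ATP at EC50; calcium influx read immediately as luminescence.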

[3] = percentage of maximal inhibition, HEK human P2X4 cells, Fluo-8 FLIPR
[4] = HEK human P2X4 cell line, photina luminescence, agonist Bz-ATP at EC50, average
[5] = HEK human P2X4 cells, Fluo-8 FLIPR

Structure (SMILES)	Emax (P2X4 [1]; [3]) [%]	Emax (P2X4 [2]; [4]) [%]	IC50 (P2X4 [1]; [5]) [nM]	IC50 (P2X4 [2]; [4]) [nM]	Emax (P2X4 [1]) [%]	Emax (P2X4 [2]) [%]
NS(=O)(=O)c1cc(NC(=O)Cc2ccccc2Cl)ccc1Oc1cccc(N2CCOCC2=O)c1 [Example 173, 2-(2-Chlorophenyl)-N-{4-[3-(3-oxomorpholin-4-yl)phenoxy]-3-sulfamoylphenyl}acetamide]	100	92	–	–	–	–
NS(=O)(=O)c1cc(NC(=O)Cc2ccccc2Cl)ccc1Oc1ccc(N2CCOCC2=O)cc1 [Example 174, 2-(2-Chlorophenyl)-N-{4-[4-(3-oxomorpholin-4-yl)phenoxy]-3-sulfamoylphenyl}acetamide]	74	64	–	–	–	–
NS(=O)(=O)c1cc(NC(=O)Cc2ccccc2Cl)ccc1Oc1ccc(N2CCCCC2=O)cc1 [Example 175, 2-(2-Chlorophenyl)-N-{4-[4-(2-oxopiperidin-1-yl)phenoxy]-3-sulfamoylphenyl}acetamide]	52	67	1300	15000	–	–
NS(=O)(=O)c1cc(NC(=O)Cc2ccccc2Cl)ccc1Oc1cccc(N2CCCCC2=O)c1 [Example 176, 2-(2-Chlorophenyl)-N-{4-[3-(2-oxopiperidin-1-yl)phenoxy]-3-sulfamoylphenyl}acetamide]	82	53	459	880	–	–
C=C(C)c1cccc(Oc2ccc(NC(=O)Cc3ccccc3Cl)cc2S(N)(=O)=O)c1 [Example 177, 2-(2-Chlorophenyl)-N-{4-[3-(prop-1-en-2-yl)phenoxy]-3-sulfamoylphenyl}acetamide]	80	69	265	970	–	–
C=C(C)c1ccccc1Oc1ccc(NC(=O)Cc2ccccc2Cl)cc1S(N)(=O)=O [Example 178, 2-(2-Chlorophenyl)-N-{4-[2-(prop-1-en-2-yl)phenoxy]-3-sulfamoylphenyl}acetamide]	76	56	392	490	–	–
Cc1ccc(CC(=O)Nc2ccc(Oc3cccc(Cl)c3)c(S(N)(=O)=O)c2)cc1 [Example 179, N-[4-(3-Chlorophenoxy)-3-sulfamoylphenyl]-2-(4-methylphenyl)acetamide]	69	65	–	–	–	–
NS(=O)(=O)c1cc(NC(=O)Cc2ccc(Cl)cc2)ccc1Oc1cccc(Cl)c1 [Example 180, N-[4-(3-Chlorophenoxy)-3-sulfamoylphenyl]-2-(4-chlorophenyl)acetamide]	76	63	–	–	–	–
COc1cccc(CC(=O)Nc2ccc(Oc3cccc(Cl)c3)c(S(N)(=O)=O)c2)c1 [Example 191, N-[4-(3-Chlorophenoxy)-3-sulfamoylphenyl]-2-(3-methoxyphenyl)acetamide]	85	72	50	149	–	–
COc1ccccc1CC(=O)Nc1ccc(Oc2cccc(Cl)c2)c(S(N)(=O)=O)c1 [Example 192, N-[4-(3-Chlorophenoxy)-3-sulfamoylphenyl]-2-(2-methoxyphenyl)acetamide]	86	68	–	–	–	–
CC(C(=O)Nc1ccc(Oc2cccc(Cl)c2)c(S(N)(=O)=O)c1)c1ccccc1Cl (stereo not shown) [Example 196, N-[4-(3-Chlorophenoxy)-3-sulfamoylphenyl]-2-(2-chlorophenyl)propanamide]	–	–	–	–	82	71
NS(=O)(=O)c1cc(NC(=O)Cc2ccccc2Cl)ccc1OC1CCCCC1 [Example 200, 2-(2-Chlorophenyl)-N-[4-(cyclohexyloxy)-3-sulfamoylphenyl]acetamide]	86	83	–	–	–	–
COCCN(C)C(=O)c1cccc(CC(=O)Nc2ccc(Oc3cccc(Cl)c3)c(S(N)(=O)=O)c2)c1 [Example 208, 3-(2-{[4-(3-Chlorophenoxy)-3-sulfamoylphenyl]amino}-2-oxoethyl)-N-(2-methoxyethyl)-N-methylbenzamide]	87	67	38	552	–	–
N#Cc1ccc(CC(=O)Nc2ccc(Oc3cccc(Cl)c3)c(S(N)(=O)=O)c2)cc1 [Example 224, N-[4-(3-Chlorophenoxy)-3-sulfamoylphenyl]-2-(4-cyanophenyl)acetamide]	78	61	345	623	–	–
NS(=O)(=O)c1cc(NC(=O)Cc2ccc(F)cc2Cl)ccc1Oc1ccc(Cl)cc1 [Example 231, 2-(2-Chloro-4-fluorophenyl)-N-[4-(4-chlorophenoxy)-3-sulfamoylphenyl]acetamide]	62	46	529	121	–	–
Cn1cc(Oc2ccc(NC(=O)Cc3ccccc3Cl)cc2S(N)(=O)=O)cn1 [Example 233, 2-(2-Chlorophenyl)-N-{4-[(1-methyl-1H-pyrazol-4-yl)oxy]-3-sulfamoylphenyl}acetamide]	70	79	–	–	–	–
NS(=O)(=O)c1cc(NC(=O)Cc2ccc(C(F)F)cc2)ccc1Oc1ccc(Cl)cc1 [Example 234, N-[4-(4-Chlorophenoxy)-3-sulfamoylphenyl]-2-[4-(difluoromethyl)phenyl]acetamide]	73	43	562	695	–	–
COc1ccc(CC(=O)Nc2ccc(Oc3ccc(Cl)cc3)c(S(N)(=O)=O)c2)c(Cl)c1 [Example 235, 2-(2-Chloro-4-methoxyphenyl)-N-[4-(4-chlorophenoxy)-3-sulfamoylphenyl]acetamide]	79	69	473	787	–	–
CC(C)(O)c1ccc(Oc2ccc(NC(=O)Cc3ccccc3Cl)cc2S(N)(=O)=O)cc1 [Example 264, 2-(2-Chlorophenyl)-N-{4-[4-(2-hydroxypropan-2-yl)phenoxy]-3-sulfamoylphenyl}acetamide]	62	80	–	–	–	–
CC1(C)CC(Oc2ccc(NC(=O)Cc3ccccc3Cl)cc2S(N)(=O)=O)CC(C)(C)O1 [Example 269, 2-(2-Chlorophenyl)-N-{3-sulfamoyl-4-[(2,2,6,6-tetramethyltetrahydro-2H-pyran-4-yl)oxy]phenyl}acetamide]	37	14	> 25000	> 50000	–	–
CC(C)(O)c1cccc(Oc2ccc(NC(=O)Cc3ccccc3Cl)cc2S(N)(=O)=O)c1 [Example 274, 2-(2-Chlorophenyl)-N-{4-[3-(2-hydroxypropan-2-yl)phenoxy]-3-sulfamoylphenyl}acetamide]	104	64	–	–	–	–
NS(=O)(=O)c1cc(NC(=O)Cc2c(Cl)ccc3c2CCO3)ccc1Oc1cccc(Cl)c1 [Example 278, 2-(5-Chloro-2,3-dihydro-1-benzofuran-4-yl)-N-[4-(3-chlorophenoxy)-3-sulfamoylphenyl]acetamide]	82	65	139	180	–	–
NS(=O)(=O)c1cc(NC(=O)Cc2ccccc2F)ccc1OCC1CCOCC1 [Example 279, 2-(2-Fluorophenyl)-N-[3-sulfamoyl-4-(tetrahydro-2H-pyran-4-ylmethoxy)phenyl]acetamide]	–	–	–	–	61	85
